The target of the data set is ATP-dependent translocase ABCB1 (Rattus norvegicus, UniProt P43245). The data set is described as follows: TP_TRANSPORTER: RT-PCR in vivo, liver of Lewis rat. The format is functional, organism-based.
Sequence of ATP-dependent translocase ABCB1 (P43245 whole entry): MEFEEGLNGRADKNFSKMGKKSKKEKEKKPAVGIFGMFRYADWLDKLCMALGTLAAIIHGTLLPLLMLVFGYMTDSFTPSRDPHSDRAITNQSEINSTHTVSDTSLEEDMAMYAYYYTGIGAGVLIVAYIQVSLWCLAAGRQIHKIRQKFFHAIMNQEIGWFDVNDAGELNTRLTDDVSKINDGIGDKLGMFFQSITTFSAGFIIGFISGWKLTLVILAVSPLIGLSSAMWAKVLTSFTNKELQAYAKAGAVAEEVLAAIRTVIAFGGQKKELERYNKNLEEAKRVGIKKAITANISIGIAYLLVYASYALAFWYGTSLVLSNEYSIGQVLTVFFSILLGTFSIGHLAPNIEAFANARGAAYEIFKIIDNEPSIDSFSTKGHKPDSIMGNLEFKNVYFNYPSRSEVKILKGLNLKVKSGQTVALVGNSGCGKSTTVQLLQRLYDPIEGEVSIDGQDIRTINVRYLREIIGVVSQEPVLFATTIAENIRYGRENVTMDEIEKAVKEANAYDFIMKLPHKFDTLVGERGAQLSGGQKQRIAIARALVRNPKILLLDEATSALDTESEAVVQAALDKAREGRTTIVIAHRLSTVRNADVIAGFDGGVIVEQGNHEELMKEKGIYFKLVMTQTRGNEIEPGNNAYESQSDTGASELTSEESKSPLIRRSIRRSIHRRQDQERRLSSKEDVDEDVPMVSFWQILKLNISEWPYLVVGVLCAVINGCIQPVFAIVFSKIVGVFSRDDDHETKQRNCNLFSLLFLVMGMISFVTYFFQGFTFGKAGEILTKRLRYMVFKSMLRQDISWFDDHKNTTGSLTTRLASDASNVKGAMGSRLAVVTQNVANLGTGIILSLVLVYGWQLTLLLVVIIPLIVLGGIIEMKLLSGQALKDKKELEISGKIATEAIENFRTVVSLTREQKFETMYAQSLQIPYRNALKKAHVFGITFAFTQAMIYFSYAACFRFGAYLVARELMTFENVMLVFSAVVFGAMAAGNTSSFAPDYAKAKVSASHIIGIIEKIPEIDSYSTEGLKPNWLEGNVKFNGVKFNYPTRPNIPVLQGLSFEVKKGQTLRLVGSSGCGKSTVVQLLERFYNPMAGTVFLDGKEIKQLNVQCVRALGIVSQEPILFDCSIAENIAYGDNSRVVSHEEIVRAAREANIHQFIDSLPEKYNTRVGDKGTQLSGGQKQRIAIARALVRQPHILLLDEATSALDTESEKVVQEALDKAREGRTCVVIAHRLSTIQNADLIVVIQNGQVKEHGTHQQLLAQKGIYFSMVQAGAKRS

Regarding `CC/C(=C(\c1ccccc1)c1ccc(OCCN(C)C)cc1)c1ccccc1` [TAMOXIFEN], the Activity entry is “inducer [+]”.

Values taken from ChEMBL document CHEMBL2074443, “Association of tamoxifen biliary excretion rate with prior tamoxifen exposure and increased mdr1b expression” (Biochem Pharmacol, 2000).
